# Measured values published in article PMC10700673, “A Smart Intracellular Self‐Assembling Bioorthogonal Raman Active Nanoprobe for Targeted Tumor Imaging” (Advanced Science, 2023).
# Columns and labels:
# [1] = test system: DU145, LNCaP, and RWPE1 cells; experiment: cell viability, Trypan blue cell counting; type: cell-based; conditions: 48 h of incubation, % of untreated control, three independent experiments
# Source text: To confirm that the nanoSABER nanoprobe can effectively differentiate between cells with high and low levels of legumain expression, we examined nanoSABER assembly in DU145, LNCaP, and RWPE1 cells. DU145 and LNCaP are legumain overexpressing and low‐expressing prostate cancer cell lines, respectively, whereas RWPE1 is a normal prostate epithelium cell line. Legumain‐overexpressing tumorigenic cells are aggressive in terms of migration and invasion.^[ [33] ^] Therefore, designing new probes for targeted imaging of legumain expression is of great significance for tumor diagnosis and tumor staging. […] A combination of both high endogenous GSH and high legumain levels is necessary in order for DU145 cells to uncage the thiol and amino groups in the nanoSABER, triggering intramolecular cyclization to form alkyne‐dimers.
# For cell viability testing, the total numbers of DU145, LNCaP, and RWPE1 cells were counted after staining with Trypan blue using an Invitrogen Countess 3 automated cell counter. Cells were incubated with nanoSABER at different concentrations. Cell viability was calculated as a percentage of control (untreated cells) set at 100%. Data were expressed as mean ± standard deviation. from three independent experiments.
# LNCaP cells = experiment: confocal Raman imaging of cells; type: cell-based; conditions: 100 µM, 3 h, then fresh media 30 min, fixed cells, legumain low-expressing
# Protocol: (§1) Raman measurements were performed on cells cultured on quartz slides. Cells were incubated with 100 µM nanoSABER probe solution for 3 h, then fresh media was added and incubation was continued for an extra 30 min. Subsequently, the cells were washed three times with phosphate‐buffered saline (PBS), fixed with 4% paraformaldehyde (PFA) for 20 min, and washed with PBS again. Finally, cells were imaged using a confocal Raman microscope. Cell boundaries were constructed using the Raman peak at 1440 cm^−1 characteristic of intrinsic cellular signals.^[ [29] ^] […] These spectral features indicate legumain‐mediated intracellular self‐assembly of nanoSABER into alkyne‐dimer nanoparticles in DU145 cells. The Raman mapping results were consistent with our in vitro solution‐based measurements (Figure 2f) where the nitrile peak diminished after the formation of alkyne‐dimer.
# (§2) Raman spectra of all synthesized peptides were acquired using a 785 nm laser and a 50× objective. The acquisition time was 10 s with 5 repetitions. All spectra were processed using custom‐written scripts in MATLAB for a tenth‐order least‐squares polynomial baseline correction with a moving window of 50. All Raman cellular imaging maps were acquired using 785 nm laser excitation and a 60× water immersion objective. For each acquisition time, the number of accumulations were 6 s and 8 acquisitions, respectively. For sample preparation, 1 × 10^5 cells were cultured in six‐well plates containing 10×10 mm quartz slides for 24 h. Cells were incubated with 100 µM of nanoSABER or Scr nanoprobe for 3 h followed by replacement with fresh media and additional incubation for 30 min. Cells were washed with PBS three times and then fixed with 4 % paraformaldehyde (PFA) for 20 min, resuspended back in PBS, and then imaged using a confocal Raman microscope. […] For each group, three independent experiments were performed, and from each pellet, we recorded Raman spectra from eight different positions. […]
# RWPE1 cells = experiment: confocal Raman imaging of cells; type: cell-based; conditions: 100 µM, 3 h, then fresh media 30 min; fixed cells; RWPE1, normal prostate epithelium
# Protocol: as §1, §2
# DU145 cells = experiment: confocal Raman imaging of cells; type: cell-based; conditions: 100 µM, 3 h, then fresh media 30 min; fixed cells; DU145, legumain overexpressing
# Protocol: as §1, §2
# DU145 tumor = experiment: in vivo Raman imaging of tumor-bearing mice; set-up: species or system NU/J nude mice; conditions: 2 h after IV injection of 0.0125 mmol kg-1
# Protocol: (§3) To further evaluate the ability of the nanoSABER probe to delineate legumain‐overexpressing tumors, in vivo Raman imaging of tumors of mice inoculated with DU145 and LNCaP cells was performed (Figure 6a). The Raman images were captured 2 h after the intravenous (IV) injection of the nanoSABER probe. […] Our results validated that nanoSABER experienced tumor legumain‐triggered self‐assembly into alkyne‐dimer nanoparticles that effectively generated distinct and higher Raman signals in DU145 tumors. To validate our findings, we included a control group that received a PBS injection instead of the nanoSABER probes. In both types of tumors, no Raman signal was detected in the control group (Figure S15, Supporting Information), further confirming that the observed signals in the experimental groups were indeed attributable to the legumain‐instructed self‐assembly of alkyne‐dimer nanoparticles.
# (§4) All animal experiments were approved by an institutional animal care and use committee (IACUC) protocol. NU/J nude mice (male, 6–8 weeks old) were subcutaneously injected with 1 × 10^6 DU145 or LNCaP cells in the right flank. Once the tumor reached a volume of 100–200 mm^3, mice were IV injected with 0.0125 mmol kg^–1 nanoSABER or PBS (control group). After 2 h, Raman imaging was performed to determine the amount of intracellular self‐assembly within the tumors.
# LNCaP tumors = experiment: in vivo Raman imaging of tumor-bearing mice; set-up: species or system NU/J nude mice; conditions: 2 h after IV injection of 0.0125 mmol kg-1, compared with DU145
# Protocol: as §3, §4
substance,measurement,setting,value
Ac‐Arg‐Arg‐Arg‐Arg‐Arg‐Arg‐Ala‐Ala‐Asn‐Cys(StBu)‐Pra‐Lys‐CBT [nanoSABER],toxic concentration (no toxicity up to),[1],> 250 µM
same,"Raman map, alkyne and nitrile signals",LNCaP cells,signals for both alkyne and nitrile groups from the nanoprobe were observed
same,"Raman map, alkyne and nitrile signals",RWPE1 cells,signals for both alkyne and nitrile groups from the nanoprobe were observed
same,"Raman map, alkyne 2120 cm-1 and nitrile 2230 cm-1 signals",DU145 cells,undetectable signal levels at 2230 cm^−1
same,Raman signal of the alkyne peak at 2120 cm-1 in the tumor,DU145 tumor,Intense Raman signal
same,Raman signal intensity within the tumor,LNCaP tumors,significantly weaker
